Test results published in paper PMC6199251, “Oncolysis with DTT-205 and DTT-304 generates immunological memory in cured animals” (Cell Death & Disease, 2018).

How the values were obtained:
caspase-3 = assay: Caspase-3 activation (immunostaining of cleaved caspase-3); format: cell-based, human; conditions: U2OS, 0.65 to 10 µM DTT peptides; staurosporine as positive control
Procedure: Fig. 3 Cell death induced by DTT-205 and DTT-304. Human osteosarcoma U2OS cells were treated with 0.65 to 10 µM DTT peptides for the indicated time and following assessed for the activation of caspase-3 (CASP3). The pan-kinase inhibitor staurosporine (STS) was used as positive control. Representative images (a, b) and quantifications of CASP3 activation (c, d) are depicted while pyknosis was assessed by measuring the decrease in Hoechst 33342-stained nuclear area (e, f) by conventional microscopy (size bar equals 10 µm; mean ± SD of triplicate assessments, Student’s t test, […], **p < 0.01, ***p < 0.001). In order to assess the cell death modality, U2OS cells were pretreated with the ferroptosis inhibitor ferrostatin-1 (FER-1), the pan-caspase inhibitor zVAD-fmk (zVAD) or the antioxidants N-actylcystein (NAC) and reduced glutathione (GSH) before the addition of 2.5 µM of DTT peptides (g, h). […] Mouse embryonic fibroblasts (MEFs) that were either wild type, single- or double knockout for the proapoptotic proteins Bax and/or Bak were treated with 0.65 to 10 µM of DTT-205 or DTT-304 and viability was assessed by means of an exclusion dye in epifluorescence microscopy (k, l; mean ± SD of triplicate assessments. Student’s t test, […], **p < 0.01, ***p < 0.001). […]

U2OS cells = assay: Lipid droplet formation (electron microscopy, Nile Red staining); format: cell-based, human; conditions: 0.65 to 10 µM, 6 h, epifluorescence microscopy
Procedure: Fig. 1 DTT peptides induce the formation of lipid droplets. Human osteosarcoma U2OS cells were treated with 2.5 µM of either DTT-205 or DTT-304 for 6 h. Cells were fixed and subjected to electron microscopy. The overview micrographs in the upper panel depict necrotic morphologies (N) of some of the treated cells and the high magnification micrographs in the lower panel show the formation of lipid droplets (L) in intact cells. Size bars equals 10 µm (upper panel) and 1 µm (lower panel). Representative images (a) and quantifications (b, c) are depicted (mean ± SD of a minimum of five view fields). The formation of lipid droplets in response to increasing doses from 0.65 to 10 µM DTT peptides was quantified by means of the lipophilic dye Nile Red at 6 h and 24 h post treatment in epifluorescence microscopy. Representative images (d) and quantifications (e, f) are shown (mean ± SD of triplicate assessments, Student’s t test, […], **p < 0.01). Temperature dependency of the lipid droplet formation was assessed by keeping the cell cultures upon treatment with 0.65 to 10 µM DTT-205 (g) and DTT-304 (h) at the indicated temperature for 6 h before Nile Red staining. […]
Figure S2. […] The formation of lipid droplets in response to increasing doses from 0.65 to 10 µM DTT-peptides was quantified by means of the lipophilic dye Nile Red in epifluorescence microscopy. […]

[1] = cited from earlier work
Description: When added to human cancer cells, DTT-205 or DTT-304 stimulated a necrosis-like disruption of cellular morphology. […] Staining with the red fluorescent lipophilic dye Nile red confirmed the formation of lipid droplets in the cytoplasm of cells treated with DTT-205 or DTT-304 that occurred in a time and dose-dependent fas ...

CN[C@@H]1C[C@H]2O[C@@](C)([C@@H]1OC)n1c3ccccc3c3c4c(c5c6ccccc6n2c5c31)C(=O)NC4 [staurosporine]
caspase-3 activation (fraction of cells positive for mature caspase-3 fragment) (caspase-3): a significant fraction of cells

LTX-315
formation of lipid droplets (U2OS cells): but not the LTX compounds, induced lipid droplets | cytotoxic potential in the presence of serum [1]: lost their cytotoxic potential in the presence of serum
